Experimental data published in US20220289753A1, “SHP2 INHIBITORS” (IRBM S.P.A., priority 2019, published 2022).
pIC50: −log10 of the molar value.

Assays:
[1] = target: T1, SHP-2 enzyme (Met1-Leu525) (Homo sapiens, UniProt Q06124); assay: SHP2 inhibition enzymatic assay (DiFMUP substrate, IRS1 peptide activation); type: biochemical; details: SHP2 wt; activated by 500 nM IRS1 peptide; 75 μM DiFMUP substrate
T1 construct: synthetized by Origene, Met1-Leu525, cat #TP750155; purchased Origene TP750155
T1 sequence (Q06124 1-525): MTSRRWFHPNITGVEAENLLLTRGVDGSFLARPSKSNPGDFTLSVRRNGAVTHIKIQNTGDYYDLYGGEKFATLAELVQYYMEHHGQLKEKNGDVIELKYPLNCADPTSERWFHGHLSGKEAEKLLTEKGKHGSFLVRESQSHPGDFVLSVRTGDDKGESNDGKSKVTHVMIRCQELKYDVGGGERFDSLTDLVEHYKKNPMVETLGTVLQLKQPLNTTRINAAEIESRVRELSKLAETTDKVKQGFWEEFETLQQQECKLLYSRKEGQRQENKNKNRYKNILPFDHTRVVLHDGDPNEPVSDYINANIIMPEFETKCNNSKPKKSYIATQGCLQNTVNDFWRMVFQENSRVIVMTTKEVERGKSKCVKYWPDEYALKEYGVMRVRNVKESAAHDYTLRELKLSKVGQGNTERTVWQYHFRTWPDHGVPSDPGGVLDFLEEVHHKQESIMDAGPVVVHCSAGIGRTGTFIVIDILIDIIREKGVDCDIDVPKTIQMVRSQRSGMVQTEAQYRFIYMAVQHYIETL
How it was run: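 SHP-2 (Met1-Leu525, 0.5 nM final) preincubated 30 min with compounds and IRS1 activating peptide in HEPES pH 7.2 buffer with NaCl, KCl, EDTA, tween-20, 5 mM DTT. DiFMUP then added for 30 min at room temperature and fluorescence read. IC50 from four-parameter logistic fit of % inhibition.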

[2] = system: ERK phosphorylation in KYSE-520 cells; assay: Phospho-ERK cellular assay (Advanced phospho-ERK1/2 (Thr202/Tyr204) TR-FRET kit); type: cell-based; details: Homo sapiens, KYSE-520, 2 h, KYSE-520 cells, 2 h at 37° C., TR-FRET; read-out: pERK IC50
How it was run: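 KYSE-520 cells were treated 2 h at 37° C with serially diluted compounds, then lysed. Phospho-ERK1/2 (Thr202/Tyr204) was detected by TR-FRET after overnight antibody incubation at room temperature. IC50 came from a four-parameter logistic fit; lower signal reflects greater SHP2 inhibition.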

| SMILES | pIC50 [1] | pIC50 [2] |
| --- | --- | --- |
| CN(C)c1nccc(Sc2cnc3[nH]c(N4CCC5(CC4)Cc4ncccc4[C@H]5N)nc3n2)c1Cl [Example 154, (S)-1′-(5-((3-chloro-2-(dimethylamino)pyridin-4-yl)thio)-1H-imidazo[4,5-b]pyrazin-2-yl)-5,7-dihydrospiro[cyclopenta[b]pyridine-6,4′-piperidin]-5-amine] | > 6.30 | < 5.30 |
| N[C@@H]1c2ccccc2OC12CCN(c1nc3nc(Sc4ccncc4Cl)cnc3[nH]1)CC2 [Example 155, (R)-1′-(5-((3-chloropyridin-4-yl)thio)-1H-imidazo[4,5-b]pyrazin-2-yl)-3H-spiro[benzofuran-2,4′-piperidin]-3-amine] | > 6.30 | 5.30 to 6.00 |
| N[C@@H]1c2ccccc2CC12CCN(c1nc3nc(Sc4cncnc4C(F)(F)F)cnc3[nH]1)CC2 [Example 156, (S)-1′-(5-((4-(trifluoromethyl)pyrimidin-5-yl)thio)-1H-imidazo[4,5-b]pyrazin-2-yl)-1,3-dihydrospiro[indene-2,4′-piperidin]-1-amine] | > 6.30 | < 5.30 |
| N[C@@H]1c2ccccc2CC12CCN(c1nc3nc(Sc4cccc5c4OCC(=O)N5)cnc3[nH]1)CC2 [Example 157] | > 6.30 | < 5.30 |
| N[C@@H]1c2ccccc2CC12CCN(c1nc3nc(Sc4nccnc4Cl)cnc3[nH]1)CC2 [Example 158, (S)-1′-(5-((3-chloropyrazin-2-yl)thio)-1H-imidazo[4,5-b]pyrazin-2-yl)-1,3-dihydrospiro[indene-2,4′-piperidin]-1-amine] | > 6.30 | > 6.00 |
| N[C@@H]1c2ccccc2CC12CCN(c1nc3nc(Sc4ccnc(NC5CC5)c4Cl)cnc3[nH]1)CC2 [Example 160, (S)-1′-(5-((3-chloro-2-(cyclopropylamino)pyridin-4-yl)thio)-1H-imidazo[4,5-b]pyrazin-2-yl)-1,3-dihydrospiro[indene-2,4′-piperidin]-1-amine] | > 6.30 | > 6.00 |
| N[C@@H]1c2cccnc2CC12CCN(c1nc3ncc(Sc4ccnc(NC5CC5)c4Cl)nc3[nH]1)CC2 [Example 161, (S)-1′-(6-((3-chloro-2-(cyclopropylamino)pyridin-4-yl)thio)-1H-imidazo[4,5-b]pyrazin-2-yl)-5,7-dihydrospiro[cyclopenta[b]pyridine-6,4′-piperidin]-5-amine] | > 6.30 | 5.30 to 6.00 |
| N[C@@H]1c2ccccc2CC12CCN(c1nc3nc(Sc4cccc5c4C(F)(F)C(=O)N5)cnc3[nH]1)CC2 [Example 162, (S)-4-((2-(1-amino-1,3-dihydrospiro[indene-2,4′-piperidin]-1′-yl)-1H-imidazo[4,5-b]pyrazin-5-yl)thio)-3,3-difluoroindolin-2-one] | > 6.30 | > 6.00 |
| N[C@@H]1c2ncccc2OC12CCN(c1nc3nc(Sc4ccncc4Cl)cnc3[nH]1)CC2 [Example 163, (R)-1′-(5-((3-chloropyridin-4-yl)thio)-1H-imidazo[4,5-b]pyrazin-2-yl)-3H-spiro[furo[3,2-b]pyridine-2,4′-piperidin]-3-amine] | > 6.30 | < 5.30 |
| N[C@@H]1c2ccccc2CC12CCN(c1nc3ncc(Sc4ccnc5cccnc45)nc3[nH]1)CC2 [Example 164, (S)-1′-(6-((1,5-naphthyridin-4-yl)thio)-1H-imidazo[4,5-b]pyrazin-2-yl)-1,3-dihydrospiro[indene-2,4′-piperidin]-1-amine] | > 6.30 | > 6.00 |
| N[C@@H]1c2ccccc2CC12CCN(c1nc3nc(Sc4ccnc(N5CC(O)C5)c4Cl)cnc3[nH]1)CC2 [Example 165, (S)-1-(4-((2-(1-amino-1,3-dihydrospiro[indene-2,4′-piperidin]-1′-yl)-1H-imidazo[4,5-b]pyrazin-5-yl)thio)-3-chloropyridin-2-yl)azetidin-3-ol] | > 6.30 | > 6.00 |
| Cn1ccc(Sc2cnc3nc(N4CCC5(CC4)Cc4ccccc4[C@H]5N)[nH]c3n2)c(Cl)c1=O [Example 166, (S)-4-((2-(1-amino-1,3-dihydrospiro[indene-2,4′-piperidin]-1′-yl)-1H-imidazo[4,5-b]pyrazin-6-yl)thio)-3-chloro-1-methylpyridin-2(1H)-one] | > 6.30 | > 6.00 |
| N[C@@H]1c2ccccc2CC12CCN(c1nc3ncc(Sc4cccc5c4OCCO5)nc3[nH]1)CC2 [Example 167, (S)-1′-(6-((2,3-dihydrobenzo[b][1,4]dioxin-5-yl)thio)-1H-imidazo[4,5-b]pyrazin-2-yl)-1,3-dihydrospiro[indene-2,4′-piperidin]-1-amine] | > 6.30 | > 6.00 |
| N[C@@H]1c2cccnc2CC12CCN(c1nc3ncc(Sc4cc(Cl)c5[nH]c(=O)oc5c4)nc3[nH]1)CC2 [Example 168, (S)-6-((2-(5-amino-5,7-dihydrospiro[cyclopenta[b]pyridine-6,4′-piperidin]-1′-yl)-1H-imidazo[4,5-b]pyrazin-6-yl)thio)-4-chlorobenzo[d]oxazol-2(3H)-one] | > 6.30 | < 5.30 |
| N[C@@H]1c2cccnc2CC12CCN(c1nc3ncc(Sc4ccc5c(c4Cl)NC(=O)CO5)nc3[nH]1)CC2 [Example 169, (S)-6-((2-(5-amino-5,7-dihydrospiro[cyclopenta[b]pyridine-6,4′-piperidin]-1′-yl)-1H-imidazo[4,5-b]pyrazin-6-yl)thio)-5-chloro-2H-benzo[b][1,4]oxazin-3(4H)-one] | > 6.30 | > 6.00 |
| N[C@@H]1c2cccnc2CC12CCN(c1nc3ncc(Sc4cccc5c4CCC(=O)N5)nc3[nH]1)CC2 [Example 170, (S)-5-((2-(5-amino-5,7-dihydrospiro[cyclopenta[b]pyridine-6,4′-piperidin]-1′-yl)-1H-imidazo[4,5-b]pyrazin-5-yl)thio)-3,4-dihydroquinolin-2(1H)-one] | > 6.30 | 5.30 to 6.00 |
| N[C@@H]1c2cccnc2CC12CCN(c1nc3ncc(Sc4ccnc(Cl)c4Cl)nc3[nH]1)CC2 [Example 171, (S)-1′-(5-((2,3-dichloropyridin-4-yl)thio)-1H-imidazo[4,5-b]pyrazin-2-yl)-5,7-dihydrospiro[cyclopenta[b]pyridine-6,4′-piperidin]-5-amine] | > 6.30 | > 6.00 |
| N[C@@H]1c2cccnc2CC12CCN(c1nc3ncc(Sc4cccc(Cl)c4Cl)nc3[nH]1)CC2 [Example 172, (S)-1′-(5-((2,3-dichlorophenyl)thio)-1H-imidazo[4,5-b]pyrazin-2-yl)-5,7-dihydrospiro[cyclopenta[b]pyridine-6,4′-piperidin]-5-amine] | > 6.30 | > 6.00 |
| CN1C(=O)COc2c(Sc3cnc4nc(N5CCC6(CC5)Cc5ccccc5[C@H]6N)[nH]c4n3)cccc21 [Example 173, (S)-8-((2-(1-amino-1,3-dihydrospiro[indene-2,4′-piperidin]-1′-yl)-1H-imidazo[4,5-b]pyrazin-6-yl)thio)-4-methyl-2H-benzo[b][1,4]oxazin-3(4H)-one] | > 6.30 | 5.30 to 6.00 |
| N[C@@H]1c2ccccc2OC12CCN(c1nc3nc(Sc4ccnc(NC5CC5)c4Cl)cnc3[nH]1)CC2 [Example 174, (R)-1′-(5-((3-chloro-2-(cyclopropylamino)pyridin-4-yl)thio)-1H-imidazo[4,5-b]pyrazin-2-yl)-3H-spiro[benzofuran-2,4′-piperidin]-3-amine] | > 6.30 | > 6.00 |
| Nc1nccc(Sc2cnc3nc(N4CCC5(CC4)Cc4ccc(F)cc4[C@H]5N)[nH]c3n2)c1Cl [Example 175, (S)-1′-(6-((2-amino-3-chloropyridin-4-yl)thio)-1H-imidazo[4,5-b]pyrazin-2-yl)-6-fluoro-1,3-dihydrospiro[indene-2,4′-piperidin]-1-amine] | > 6.30 | > 6.00 |
| N[C@@H]1c2ccccc2CC12CCN(c1nc3ncc(Sc4ccnc5ccccc45)nc3[nH]1)CC2 [Example 176, (S)-1′-(6-(quinolin-4-ylthio)-1H-imidazo[4,5-b]pyrazin-2-yl)-1,3-dihydrospiro[indene-2,4′-piperidin]-1-amine] | > 6.30 | > 6.00 |
| COc1cnccc1Sc1cnc2nc(N3CCC4(CC3)Cc3ccccc3[C@H]4N)[nH]c2n1 [Example 177, (S)-1′-(6-((3-methoxypyridin-4-yl)thio)-1H-imidazo[4,5-b]pyrazin-2-yl)-1,3-dihydrospiro[indene-2,4′-piperidin]-1-amine] | > 6.30 | > 6.00 |
| N[C@@H]1c2ccccc2CC12CCN(c1nc3ncc(Sc4cccc5[nH]c(=O)oc45)nc3[nH]1)CC2 [Example 178, (S)-7-((2-(1-amino-1,3-dihydrospiro[indene-2,4′-piperidin]-1′-yl)-1H-imidazo[4,5-b]pyrazin-6-yl)thio)benzo[d]oxazol-2(3H)-one] | > 6.30 | 5.30 to 6.00 |
